Experimental data: ChEMBL document CHEMBL1151443, “Activity of the novel macrolide BAL19403 against ribosomes from erythromycin-resistant Propionibacterium acnes” (Antimicrob Agents Chemother, 2007)
pIC50, pKd: −log10 of the molar value. Values after ≈ are worked out from the molar mass of the structure shown.

Experiments:
[1] = molecular target: Bacterial 70S ribosome (Bacteria) (UniProt P0A7V0+P60723+P0AG67+P0A7R5+P0A7R9+P0A7S3+P0A7S9+P0AG59+P0ADZ4+P0A7T3+P0AG63+P0A7T7+P0A7U3+P0A7U7+P68679+P0A7V3+P0A7V8+P0A7W1+P02358+P02359+P0A7W7+P0A7X3+P0A7J3+P0A7J7+P0AA10+P0ADY3+P02413+P0ADY7+P0AG44+P0C018+P0A7K6+P0A7L0+P0A7L3+P0AG48+P61175+P0ADZ0+P60624+P68919+P0A7L8+P0A7M2+P0A7M6+P60422+P0AG51+P0A7N1+P0A7M9+P0A7N4+P0A7N9+P0A7P5+P0A7Q1+Q2EEQ2+P0A7Q6+P60438+P62399+P0AG55+P0A7K2); test: (§1) Inhibition of ribosomal activity in erythromycin-resistant Propionibacterium acnes GE4E carrying Erm(X) gene assessed as luciferase production by transcriptional and translational assay; type: subcellular; conditions: Cutibacterium acnes, concentration not given here
Bacterial 70S ribosome [2] = test: as §1; type: subcellular, Cutibacterium acnes
Bacterial 70S ribosome [3] = test: Inhibition of ribosomal activity in erythromycin-resistant Propionibacterium acnes P95 with G2057A mutation in domain V of 23S rRNA assessed as luciferase production by transcriptional and translational assay; type: subcellular, Cutibacterium acnes
Bacterial 70S ribosome [4] = test: Inhibition of ribosomal activity in erythromycin-sensitive Escherichia coli BL21 assessed as luciferase production by transcriptional and translational assay; type: subcellular
Bacterial 70S ribosome [5] = test: Displacement of [14C]ERY from erythromycin-sensitive Escherichia coli BL21 ribosome; type: subcellular
Bacterial 70S ribosome [6] = test: Inhibition of ribosomal activity in erythromycin-resistant Propionibacterium acnes SW54EA with A2058G mutation in domain V of 23S rRNA assessed as luciferase production by transcriptional and translational assay; type: subcellular, Cutibacterium acnes
[7] = Inhibition of ribosomal activity in erythromycin-sensitive Escherichia coli BL21 S30 extracts assessed as inhibition of luciferase activity by transcriptional and translational assay; type: subcellular, Ribosome
Bacterial 70S ribosome [8] = test: Inhibition of ribosomal activity in erythromycin-sensitive Propionibacterium acnes EG7NS assessed as luciferase production by transcriptional and translational assay; type: subcellular, Cutibacterium acnes
Cutibacterium acnes [9] = test: Antibacterial activity against erythromycin-resistant Propionibacterium acnes with G2057A mutation in domain V of 23S rRNA; type: functional
Bacterial 70S ribosome [10] = test: Displacement of [14C]ERY from ribosome in erythromycin-resistant Propionibacterium acnes P95 with G2057A mutation in domain V of 23S rRNA; type: subcellular, Cutibacterium acnes
Cutibacterium acnes [11] = test: Antibacterial activity against erythromycin-resistant Propionibacterium acnes SW54EA with 23S rRNA A2058G mutant; type: functional
Cutibacterium acnes [12] = test: Antibacterial activity against erythromycin-resistant Propionibacterium acnes P95 with 23S rRNA G2057A mutant; type: functional
Cutibacterium acnes [13] = test: Antibacterial activity against erythromycin-resistant Propionibacterium acnes with A2059 mutation in domain V of 23S rRNA; type: functional
Escherichia coli = test: Antibacterial activity against Escherichia coli BL21; type: functional
Cutibacterium acnes [14] = test: Antibacterial activity against erythromycin-sensitive Propionibacterium acnes EG7NS; type: functional
Cutibacterium acnes [15] = test: Antibacterial activity against erythromycin-resistant Propionibacterium acnes GE4E carrying Erm(X) gene; type: functional
Cutibacterium acnes [16] = test: Antibacterial activity against erythromycin-resistant Propionibacterium acnes with A2058G mutation in domain V of 23S rRNA; type: functional
Bacterial 70S ribosome [17] = test: Displacement of [14C]ERY from erythromycin-sensitive Propionibacterium acnes EG7NS ribosome; type: subcellular, Cutibacterium acnes

SMILES | inhibition [1] [%] | pIC50 (Bacterial 70S ribosome [2]) | pIC50 (Bacterial 70S ribosome [3]) | pIC50 (Bacterial 70S ribosome [4]) | pKd (Bacterial 70S ribosome [5]) | pIC50 (Bacterial 70S ribosome [6]) | pIC50 [7] | pIC50 (Bacterial 70S ribosome [8]) | MIC (Cutibacterium acnes [9]) [µg/mL] | pKd (Bacterial 70S ribosome [10]) | MIC (Cutibacterium acnes [11]) [µg/mL] | MIC (Cutibacterium acnes [12]) [µg/mL] | MIC (Cutibacterium acnes [13]) [µg/mL] | MIC (Escherichia coli) [µg/mL] | MIC (Cutibacterium acnes [14]) [µg/mL] | MIC (Cutibacterium acnes [15]) [µg/mL] | MIC (Cutibacterium acnes [16]) [µg/mL] | pKd (Bacterial 70S ribosome [17])
CC[C@H]1OC(=O)[C@H](C)[C@@H](O[C@H]2C[C@@](C)(OC)[C@@H](O)[C@H](C)O2)[C@H](C)[C@@H](O[C@@H]2O[C@H](C)C[C@H](N(C)C)[C@H]2O)[C@](C)(OC)C[C@@H](C)C(=O)[C@H](C)[C@H]2[C@H](SCCn3cnc4cccnc43)C(=O)O[C@@]21C | 48 | 6.72 | 6.92 | 6.38 | 7.59 | 6.59 | 6.07 | 6.96 |  |  |  |  |  |  |  |  |  | 
CC[C@H]1OC(=O)[C@H](C)[C@@H](O[C@H]2C[C@@](C)(OC)[C@@H](O)[C@H](C)O2)[C@H](C)[C@@H](O[C@@H]2O[C@H](C)C[C@H](N(C)C)[C@H]2O)[C@](C)(O)C[C@@H](C)C(=O)[C@H](C)[C@@H](O)[C@]1(C)O [ERYTHROMYCIN] | 52 | 5.72 | 5.66 | 6.12 | 7.96 | 4.06 | 5.67 | 6.77 | 1 (≈ 1.36 µM) | < 5.68 | > 512 | 4 (≈ 5.45 µM) | > 128 | 128 (≈ 174 µM) | ≤ 0.06 | > 512 | > 128 | 7.54
